EC50 data for ten compounds are collected here from patent US20230144824A1, “1H-PYRAZOLO[4,3-d]PYRIMIDINE COMPOUNDS AS TOLL-LIKE RECEPTOR 7 (TLR7) AGONISTS” (BRISTOL-MYERS SQUIBB COMPANY, priority 2020, published 2023).

pEC50: −log10 of the molar value.

One assay deals with CD69. Put plainly: Induction of CD69 in human whole blood. It counts as cell-based. To be noted: Homo sapiens, 17 h, 100% set to 1 uM of resiquimod, average where assay performed multiple times, read-out: hWB CD69 EC50. An outline of the steps: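 Heparinized human whole blood treated with TLR7 agonist at final 1 uM and incubated 17 h at 37° C. CD69 surface staining alongside CD14 and CD19, then fix/lysis and flow cytometry on iQuePlus. Curves fitted with 1 uM resiquimod set as 100%.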

The target in another assay is T1, human TLR7 (Homo sapiens, UniProt Q9NYK1).
T1 construct: host or cells: HEK-Blue TLR7 cells (engineered human embryonic kidney cells)
T1 sequence (Q9NYK1 27-1049): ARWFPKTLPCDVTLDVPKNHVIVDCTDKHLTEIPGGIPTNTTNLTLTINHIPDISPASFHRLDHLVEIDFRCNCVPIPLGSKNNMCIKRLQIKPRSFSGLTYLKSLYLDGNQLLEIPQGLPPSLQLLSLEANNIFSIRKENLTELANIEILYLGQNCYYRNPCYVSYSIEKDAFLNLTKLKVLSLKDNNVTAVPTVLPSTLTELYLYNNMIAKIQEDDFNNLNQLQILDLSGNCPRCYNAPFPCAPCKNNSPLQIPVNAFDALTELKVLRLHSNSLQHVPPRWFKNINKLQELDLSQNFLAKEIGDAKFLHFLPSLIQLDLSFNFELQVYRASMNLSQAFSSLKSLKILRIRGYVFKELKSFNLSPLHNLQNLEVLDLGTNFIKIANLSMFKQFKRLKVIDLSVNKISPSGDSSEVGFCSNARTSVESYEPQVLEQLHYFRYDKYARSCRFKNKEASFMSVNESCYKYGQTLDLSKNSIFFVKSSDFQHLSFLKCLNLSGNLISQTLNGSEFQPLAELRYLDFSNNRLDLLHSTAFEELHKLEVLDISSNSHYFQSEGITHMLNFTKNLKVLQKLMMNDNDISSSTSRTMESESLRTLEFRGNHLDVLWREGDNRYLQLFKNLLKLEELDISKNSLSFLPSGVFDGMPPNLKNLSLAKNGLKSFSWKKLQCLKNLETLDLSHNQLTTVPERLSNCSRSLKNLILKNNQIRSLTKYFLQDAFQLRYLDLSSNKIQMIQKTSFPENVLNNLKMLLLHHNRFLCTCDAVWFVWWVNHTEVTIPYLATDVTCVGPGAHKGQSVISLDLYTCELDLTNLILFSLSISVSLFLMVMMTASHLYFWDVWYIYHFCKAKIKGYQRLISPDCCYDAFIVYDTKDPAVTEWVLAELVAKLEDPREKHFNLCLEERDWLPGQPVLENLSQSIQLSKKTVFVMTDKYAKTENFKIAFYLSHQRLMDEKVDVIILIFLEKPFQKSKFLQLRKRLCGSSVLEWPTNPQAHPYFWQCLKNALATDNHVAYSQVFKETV
The assay is described as follows: Human TLR7 agonist activity assay (HEK-Blue TLR7 SEAP reporter). As to conditions: HEK-Blue TLR7 cells, 18 h treatment, average where assay performed multiple times, read-out: hTLR7 Agonism EC50. It counts as cell-based. A digest of the protocol:
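HEK-Blue TLR7 cells (15,000/well) treated with compound for 18 h at 37 °C, 5% CO2. Secreted SEAP measured with Quanti-Blue, 30 min, OD 620 nm. EC50 taken as concentration giving half-maximal response between baseline and maximum.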

The term pEC50 denotes −log10 of the EC50, conventionally taken in molar units.

In the case of `CCC[C@@H](CCO)Nc1nc(N)nc2cnn(Cc3ncc(C4CCN(C(=O)CN(C)C)CC4)cc3OC)c12` [Compound 135, 1-(4-{6-[(5-amino-7-{[(3S)-1-hydroxyhexan-3-yl]amino}-1H-pyrazolo[4,3-d]pyrimidin-1-yl)methyl]-5-methoxypyridin-3-yl}piperidin-1-yl)-2-(dimethylamino)ethan-1-one], the negative-log EC50 (pEC50) was 7.93 in the assay with CD69 and 7.38 at human TLR7.

Turning to `CCC[C@@H](CCO)Nc1nc(N)nc2cnn(Cc3cnc(C4CCN(CC(C)(C)O)CC4)cc3OC)c12` [Compound 176, (3S)-3-{[5-amino-1-({6-[1-(2-hydroxy-2-methylpropyl)piperidin-4-yl]-4-methoxypyridin-3-yl}methyl)-1H-pyrazolo[4,3-d]pyrimidin-7-yl]amino}hexan-1-ol], the pEC50 in the assay with CD69 was 9.68; at human TLR7, 8.32.

Regarding `CCC[C@@H](CCO)Nc1nc(N)nc2cnn(Cc3nc(C4CCN(C(C)C)CC4)ccc3OC)c12` [Compound 190, (3S)-3-{[5-amino-1-({3-methoxy-6-[1-(propan-2-yl)piperidin-4-yl]pyridin-2-yl}methyl)-1H-pyrazolo[4,3-d]pyrimidin-7-yl]amino}hexan-1-ol], the pEC50 with CD69 was 7.57; at human TLR7 it was 6.76.

On to `CCCCNc1nc(N)nc2cnn(Cc3ncc(C4CCN(C(=O)CCO)CC4)cc3OC)c12` [Compound 105, 1-[4-(6-{[5-amino-7-(butylamino)-1H-pyrazolo[4,3-d]pyrimidin-1-yl]methyl}-5-methoxypyridin-3-yl)piperidin-1-yl]-3-hydroxypropan-1-one], for which the negative logarithm of the EC50 (pEC50) was 6.80 in the assay on CD69 and 6.09 at human TLR7.

With `CCCCNc1nc(N)nc2c(C)nn(Cc3ncc(C4CCNCC4)cc3OC)c12` [Compound 106, N7-butyl-1-{[3-methoxy-5-(piperidin-4-yl)pyridin-2-yl]methyl}-3-methyl-1H-pyrazolo[4,3-d]pyrimidine-5,7-diamine], the values for the pEC50 in the assay on CD69 and at human TLR7 were 6.82 and 6.26, respectively.

On to `CCC[C@@H](CCO)Nc1nc(N)nc2cnn(Cc3nc(C4CCN(C5CCOCC5)CC4)ccc3OC)c12` [Compound 189, (3S)-3-{[5-amino-1-({3-methoxy-6-[1-(oxan-4-yl)piperidin-4-yl]pyridin-2-yl}methyl)-1H-pyrazolo[4,3-d]pyrimidin-7-yl]amino}hexan-1-ol], for which the values for the pEC50 with CD69 and on human TLR7 were 8.01 and 7.07, respectively.

Consider `CCC[C@@H](CCO)Nc1nc(N)nc2cnn(Cc3nc(C4CCN(C)CC4)ccc3OC)c12` [Compound 191, (3S)-3-[(5-amino-1-{[3-methoxy-6-(1-methylpiperidin-4-yl)pyridin-2-yl]methyl}-1H-pyrazolo[4,3-d]pyrimidin-7-yl)amino]hexan-1-ol], for which the pEC50 in the assay with CD69 is 7.45; on human TLR7 it was 6.66.

Turning to `CCC[C@@H](CCO)Nc1nc(N)nc2cnn(Cc3ncc(C4CCN(C5CC6(COC6)C5)CC4)cc3OC)c12` [Compound 148, (3S)-3-[(5-amino-1-{[3-methoxy-5-(1-{2-oxaspiro[3.3]heptan-6-yl}piperidin-4-yl)pyridin-2-yl]methyl}-1H-pyrazolo[4,3-d]pyrimidin-7-yl)amino]hexan-1-ol], the pEC50 in the assay with CD69 is 9.31; at human TLR7 it was 7.85.

With `CCCCNc1nc(N)nc2c(Cl)nn(Cc3ncc(C4CCN(C5CCCC5)CC4)cc3OC)c12` [Compound 131, N7-butyl-3-chloro-1-{[5-(1-cyclopentylpiperidin-4-yl)-3-methoxypyridin-2-yl]methyl}-1H-pyrazolo[4,3-d]pyrimidine-5,7-diamine], the values for the pEC50 in the assay with CD69 and at human TLR7 were 6.01 and 6.23, respectively.

For `CCC[C@@H](CCO)Nc1nc(N)nc2cnn(Cc3ccc(C4CCCN4)cc3OC)c12` (stereo partly drawn) [Compound 175, (3S)-3-[(5-amino-1-{[2-methoxy-4-(pyrrolidin-2-yl)phenyl]methyl}-1H-pyrazolo[4,3-d]pyrimidin-7-yl)amino]hexan-1-ol], the pEC50 with CD69 is 9.04; on human TLR7, 8.06.
